Laboratory results: PMC6364417, “Kinase inhibitor library screening identifies synergistic drug combinations effective in sensitive and resistant melanoma cells” (Journal of Experimental & Clinical Cancer Research : CR, 2019)

Assays:
Assay in all cases: Kinase inhibitor library screening, PrestoBlue cell viability, 1 or 10 μM, 72 h
501Mel cells (parental) = conditions: for cell viability (kinase inhibitor library screening): 501Mel Parental
How it was run: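 Sensitive parental cells and their resistant derivatives were exposed to library compounds for 72 h. Values represent viability as a percentage of untreated cells.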

[1] = tested on: 501Mel-GP cells (Dabrafenib-resistant); conditions: for cell viability (kinase inhibitor library screening): 501Mel GP
[2] = tested on: 501Mel-XP cells (Vemurafenib-resistant); conditions: for cell viability (kinase inhibitor library screening): 501Mel XP
A375 cells (parental) = conditions: for cell viability (kinase inhibitor library screening): A375 Parental
[3] = tested on: A375-GP cells (Dabrafenib-resistant); conditions: for cell viability (kinase inhibitor library screening): A375 GP
[4] = tested on: A375-XP cells (Vemurafenib-resistant); conditions: for cell viability (kinase inhibitor library screening): A375 XP
IGR37 cells (parental) = conditions: for cell viability (kinase inhibitor library screening): IGR37 Parental
[5] = tested on: IGR37-GP cells (Dabrafenib-resistant); conditions: for cell viability (kinase inhibitor library screening): IGR37 GP
[6] = tested on: IGR37-XP cells (Vemurafenib-resistant); conditions: for cell viability (kinase inhibitor library screening): IGR37 XP

SMILES | cell viability (kinase inhibitor library screening) (501Mel cells (parental); 1μΜ, 72 h) | cell viability (kinase inhibitor library screening) (501Mel cells (parental); 10μΜ, 72 h) | cell viability (kinase inhibitor library screening) ([1]; 1μΜ, 72 h) | cell viability (kinase inhibitor library screening) ([1]; 10μΜ, 72 h) | cell viability (kinase inhibitor library screening) ([2]; 1μΜ, 72 h) | cell viability (kinase inhibitor library screening) ([2]; 10μΜ, 72 h) | cell viability (kinase inhibitor library screening) (A375 cells (parental); 10μΜ, 72 h) | cell viability (kinase inhibitor library screening) (A375 cells (parental); 1μΜ, 72 h) | cell viability (kinase inhibitor library screening) ([3]; 10μΜ, 72 h) | cell viability (kinase inhibitor library screening) ([4]; 1μΜ, 72 h) | cell viability (kinase inhibitor library screening) ([4]; 10μΜ, 72 h) | cell viability (kinase inhibitor library screening) (IGR37 cells (parental); 1μΜ, 72 h) | cell viability (kinase inhibitor library screening) (IGR37 cells (parental); 10μΜ, 72 h) | cell viability (kinase inhibitor library screening) ([5]; 1μΜ, 72 h) | cell viability (kinase inhibitor library screening) ([5]; 10μΜ, 72 h) | cell viability (kinase inhibitor library screening) ([6]; 1μΜ, 72 h) | cell viability (kinase inhibitor library screening) ([6]; 10μΜ, 72 h) | cell viability (kinase inhibitor library screening) (501Mel cells (parental); 1μΜ, in %) | cell viability (kinase inhibitor library screening) (501Mel cells (parental); 10μΜ, in %) | cell viability (kinase inhibitor library screening) ([1]; 1μΜ, in %) | other results
Cn1cc(-c2ccc3nnc(C(F)(F)c4ccc5ncccc5c4)n3n2)cn1 [JNJ-38877605] | 97.8% | 86.4% | 86.8% | 64.7% | 70.9% | 57.1% | 97.6% | 99.7% | 97.0% | 105.2% | 100.0% | 106.0% | 87.1% | 102.6% | 87.5% | 96.1% | 62.2% |  |  |  | 
CCCNC(=O)Nc1ccc(Oc2ncnc3cc(OC)c(OC)cc23)cc1Cl [KRN 633] |  |  |  |  |  |  |  |  |  |  |  |  |  |  |  |  |  | 94.4 | 91.7 | 106.2 | cell viability (kinase inhibitor library screening) ([1]; 10μΜ, in %): 89.7; cell viability (kinase inhibitor library screening) ([2]; 10μΜ, in %): 80.1; cell viability (kinase inhibitor library screening) (A375 cells (parental); 1μΜ, in %): 103.4; cell viability (kinase inhibitor library screening) (A375 cells (parental); 10μΜ, in %): 92.6; cell viability (kinase inhibitor library screening) ([3]; 1μΜ, in %): 99.0; cell viability (kinase inhibitor library screening) ([3]; 10μΜ, in %): 89.8; cell viability (kinase inhibitor library screening) ([4]; 10μΜ, in %): 103.6; cell viability (kinase inhibitor library screening) (IGR37 cells (parental); 1μΜ, in %): 99.7; cell viability (kinase inhibitor library screening) (IGR37 cells (parental); 10μΜ, in %): 109.9; cell viability (kinase inhibitor library screening) ([5]; 1μΜ, in %): 92.2; cell viability (kinase inhibitor library screening) ([5]; 10μΜ, in %): 93.4; cell viability (kinase inhibitor library screening) ([6]; 1μΜ, in %): 98.3; cell viability (kinase inhibitor library screening) ([6]; 10μΜ, in %): 68.5
O=c1cc(-c2cccc3c2Sc2ccccc2S3)oc(N2CCOCC2)c1 [KU-55933] |  | 90.2% | 98.9% | 76.6% | 87.7% | 65.9% | 90.0% | 105.8% | 89.1% | 104.1% | 92.4% | 113.8% | 80.4% | 98.2% | 67.8% | 105.2% | 34.9% |  |  |  | cell viability (kinase inhibitor library screening) ([3]; 1μΜ, 72 h): 92.9%
C[C@@H]1CN(CC(=O)Nc2ccc3c(c2)Cc2cccc(-c4cc(=O)cc(N5CCOCC5)o4)c2S3)C[C@H](C)O1 [KU-60019] | 90.0% | 71.5% | 103.1% | 54.1% | 91.4% | 36.5% | 78.4% |  | 68.6% |  | 74.4% |  | 97.6% | 92.9% |  |  | 34.1% |  |  |  | cell viability (kinase inhibitor library screening) ([3]; 1μΜ, 72 h): 100.5%
O=C(c1ccc(/C=C/c2n[nH]c3ccccc23)cc1)N1CCNCC1 [KW 2449] |  |  |  |  |  |  |  |  |  |  |  |  |  |  |  |  |  |  |  |  | viability at 1 µM (501Mel cells (parental); Homo sapiens, 72 h, read-out: cell viability, 501Mel Parental, 1μΜ): 97.3%; viability at 10 µM (501Mel cells (parental); Homo sapiens, 72 h, read-out: cell viability, 501Mel Parental, 10μΜ): 57.7%; viability at 1 µM ([1]; Homo sapiens, 72 h, read-out: cell viability, 501Mel GP, 1μΜ): 103%; viability at 10 µM ([1]; Homo sapiens, 72 h, read-out: cell viability, 501Mel GP, 10μΜ): 66.3%; viability at 1 µM ([2]; Homo sapiens, 72 h, read-out: cell viability, 501Mel XP, 1μΜ): 96.9%; viability at 10 µM ([2]; Homo sapiens, 72 h, read-out: cell viability, 501Mel XP, 10μΜ): 58%; viability at 1 µM (A375 cells (parental); Homo sapiens, A-375, 72 h, read-out: cell viability, A375 Parental, 1μΜ): 87.5%; viability at 10 µM (A375 cells (parental); Homo sapiens, A-375, 72 h, read-out: cell viability, A375 Parental, 10μΜ): 30.6%; viability at 1 µM ([3]; Homo sapiens, A-375, 72 h, read-out: cell viability, A375 GP, 1μΜ): 93.7%; viability at 10 µM ([3]; Homo sapiens, A-375, 72 h, read-out: cell viability, A375 GP, 10μΜ): 28%; viability at 1 µM ([4]; Homo sapiens, A-375, 72 h, read-out: cell viability, A375 XP, 1μΜ): 94.8%; viability at 10 µM ([4]; Homo sapiens, A-375, 72 h, read-out: cell viability, A375 XP, 10μΜ): 40.9%; viability at 1 µM (IGR37 cells (parental); Homo sapiens, IGR-37, 72 h, read-out: cell viability, IGR37 Parental, 1μΜ): 99.6%; viability at 10 µM (IGR37 cells (parental); Homo sapiens, IGR-37, 72 h, read-out: cell viability, IGR37 Parental, 10μΜ): 71.9%; viability at 1 µM ([5]; Homo sapiens, IGR-37, 72 h, read-out: cell viability, IGR37 GP, 1μΜ): 96.4%; viability at 10 µM ([5]; Homo sapiens, IGR-37, 72 h, read-out: cell viability, IGR37 GP, 10μΜ): 45.2%; viability at 1 µM ([6]; Homo sapiens, IGR-37, 72 h, read-out: cell viability, IGR37 XP, 1μΜ): 104%; viability at 10 µM ([6]; Homo sapiens, IGR-37, 72 h, read-out: cell viability, IGR37 XP, 10μΜ): 18%
COc1cc2nccc(Oc3ccc(NC(=O)Nc4ccc(F)cc4F)c(F)c3)c2cc1OC [Ki8751] |  |  |  |  |  |  |  |  |  |  |  |  |  |  |  |  |  | 96.7 | 85.3 | 97.3 | cell viability (kinase inhibitor library screening) ([1]; 10μΜ, in %): 80.7; cell viability (kinase inhibitor library screening) ([2]; 1μΜ, in %): 89.9; cell viability (kinase inhibitor library screening) ([2]; 10μΜ, in %): 74.9; cell viability (kinase inhibitor library screening) (A375 cells (parental); 1μΜ, in %): 96.1; cell viability (kinase inhibitor library screening) (A375 cells (parental); 10μΜ, in %): 75.1; cell viability (kinase inhibitor library screening) ([3]; 1μΜ, in %): 94.2; cell viability (kinase inhibitor library screening) ([3]; 10μΜ, in %): 77.5; cell viability (kinase inhibitor library screening) ([4]; 10μΜ, in %): 97.9; cell viability (kinase inhibitor library screening) (IGR37 cells (parental); 1μΜ, in %): 93.0; cell viability (kinase inhibitor library screening) (IGR37 cells (parental); 10μΜ, in %): 84.9; cell viability (kinase inhibitor library screening) ([5]; 1μΜ, in %): 88.2; cell viability (kinase inhibitor library screening) ([5]; 10μΜ, in %): 88.8; cell viability (kinase inhibitor library screening) ([6]; 1μΜ, in %): 88.9; cell viability (kinase inhibitor library screening) ([6]; 10μΜ, in %): 70.9
